# Experiments:
# Format in all cases: cell-based
# [1] = tested on: K562-αvβ3 cells; test: Adhesion of K562-αvβ3 cells to wells coated with GST-LAPβ3 (amino acids 259-269); details: wells coated with 0.5 μg GST-LAPβ3; 2 mM MgCl2; antibodies 1 μg/well; FIG. 2
# Protocol: (§1) K562-αvβ3 cells were allowed to attach to wells coated with 0.5 μg of GST-LAPβ3 (amino acids 259-269) in the presence of 2 mM MgCl2. Specific blocking antibodies (1 μg/well) and compounds were added as indicated. Each data point represents the mean±SD of duplicate points, and is representative of at least three identical experiments.
# (§2) K562-WT (wild-type), K562-αvβ6, K562-αvβ5 and K562-αvβ3 cells were maintained in 1:1 RPMI 1640, Hepes modification (Gibco): Dulbecco's […] (DMEM), Hepes modification (Sigma) supplemented with L-glutamine (Gibco) and 10% fetal calf serum (FCS). In addition K562-αvβ3, K562-αvβ5, and K562-αvβ6 cells were supplemented with geneticin (G418, Gibco) at 1 mg/ml. All transfected cells were generated by transfecting K562 cells with pCDNA-3 constructs containing individual integrin cDNAs, using lipofectamine plus (Gibco BRL).
# (§3) All proteins were coated onto Maxisorp 96-well plates (Nunclon) overnight at 4° C. […] For quantitation cells were visualised by staining with 0.1% crystal violet (Sigma) for 10 minutes then lysed in 0.5% Triton X-100 (Sigma) and read optically at 570 nm in a Wallac Victor plate reader.
# (§4) The region of LAPβ3 corresponding to amino acids 259 to 269 (^259HGRGDLGRLKK^269) was expressed as a GST fusion protein and tested for the ability to support adhesion of K562-αvβ3, K562-αvβ5, and K562-αvβ6 cells. […]
# [2] = tested on: K562-αvβ5 cells; test: Adhesion of K562-αvβ5 cells to wells coated with GST-LAPβ3 (amino acids 259-269); details: wells coated with 0.5 μg GST-LAPβ3; 0.5 mM MnCl2; antibodies 1 μg/well; FIG. 4
# Protocol: as §1, with “K562-αvβ5 cells” for “K562-αvβ3 cells”, “of […]” for “of GST-LAPβ3”, “of 0.5” for “of 2”, “mM MnCl2.” for “mM MgCl2.”
# as §2, §3, §4
# [3] = tested on: K562-αvβ6 cells; test: Adhesion of K562-αvβ6 cells to wells coated with GST-LAPβ3 (amino acids 259-269); details: wells coated with 0.5 μg GST-LAPβ3; 2 mM MgCl2; antibodies 1 μg/well; FIG. 3
# Protocol: as §1, with “K562-αvβ6” for “K562-αvβ3”, “(amino-acids” for “(amino acids”
# as §2, §3, §4
Compound,Blocking of K562-αvβ3 cell adhesion to GST-LAPβ3 (amino acids 259-269) [1],Inhibition of K562-αvβ5 cell adhesion to GST-LAPβ3 (amino acids 259-269) [2],Blocking of K562-αvβ6 cell adhesion to GST-LAPβ3 (amino acids 259-269) [3]
CN(Cc1nc2ccccc2[nH]1)C(=O)c1ccc2c(c1)CN(C)C(=O)[C@H](CC(=O)O)N2 [SB223245],blocked,total blockade,–
"Ac—RTDLDSLRT-NH2 (Ac-RTDLDSLRT-NH2) [GW603365A, described in WO 0037487]",–,–,blocked
